Laboratory results from publication PMC12040169 (PLOS Biology, 2025).

Assay: in vitro
Conditions: human, hela cells, % viability

SMILES	viability at 28.5 h, 10 µM
Cc1cc(-c2cn3cc(C(=O)N4CCCCC4)nc3c(=O)n2C)c(C)o1 [CBK306890]	86.6%
c1cnc(NCc2cc3n(n2)CCN(CC2CCCCO2)C3)cn1 (stereo not drawn) [CBK306891]	96.4%
CCc1nc(-c2ccc(N(C)C)nc2)n(C)n1 [CBK306897]	90.6%
CCOc1ccc(-c2ccnc(NCCNC(C)=O)n2)cc1C(=O)O [CBK306898]	85.1%
CN(CCO)c1ccc(C(=O)N2CCC(N3CCOCC3)CC2)cn1 [CBK306899]	97%
CCn1cc(CN(CCOC)C(=O)c2cc3c(Cl)cccc3[nH]2)cn1 [CBK306903]	91.5%
COc1ccc2[nH]c(CN3CCCC(c4nc(C)n[nH]4)C3)c(C)c2c1 (stereo not drawn) [CBK306904]	101%
Cn1cc(CCCNC(=O)c2cccc(CN3CCCCCC3)c2)cn1 [CBK306906]	93.7%
O=c1cc(N2CCCCC2)cnn1CCCn1cccn1 [CBK306907]	90.1%
Nc1nc(C2CC(N)C2)cc(N2CCC(Oc3ccccc3F)CC2)n1 (stereo not drawn) [CBK306909]	85.5%
CCc1nc(N)nc(N2CCCC3(CN(C)C(=O)O3)C2)c1C (stereo not drawn) [CBK306914]	86.9%
Cc1cnc2c(Cl)c(C(=O)NCC3(CN4CCOCC4)CC3)nn2c1 [CBK306918]	98.8%
COc1ccc(CN2CCOC(C(=O)O)C2)cc1Cn1cncn1 (stereo not drawn) [CBK306919]	120%
Cc1cc(C)n(CC2(CNC(=O)C(c3ccccc3F)N(C)C)CC2)n1 (stereo not drawn) [CBK306920]	97.2%
CC(Cc1ccsc1)NS(=O)(=O)c1cccc(C(=O)N2CCCC2)c1 (stereo not drawn) [CBK306923]	85.8%
COc1ccnc(N2CCN(Cc3cncn3C3CCCCC3)CC2)n1 [CBK306925]	98.1%
COc1ccccc1CCC(=O)NCc1cnc(SC)n1C [CBK306926]	85.9%
O=C(NCC(CO)Cc1ccsc1)N1CCN(c2ccncc2)CC1 (stereo not drawn) [CBK306929]	96.7%
Cn1nccc1C(O)c1cc2n(n1)CCCN(C(=O)Cc1cccs1)C2 (stereo not drawn) [CBK306930]	104%
Cc1nc(CCN2CCN(c3ccc4nccn4n3)CC2)cs1 [CBK306932]	95.6%
CCc1ocnc1C(=O)NC1CCN(c2ncccc2C#N)CC1 [CBK306935]	93%
Cn1ncc(N2CCN(C(=O)CCCOc3ccccc3)CC2)cc1=O [CBK306937]	84.2%

SMILES	viability at 28.5 h, 10 µM
CSc1nnc(CC2CCN(C(=O)c3ccc(C)cc3F)CC2)n1C [CBK306939]	105%
CCCCSc1nc(N)cc(N2CCN3C(=O)CN(C)C(=O)C3C2)n1 (stereo not drawn) [CBK306940]	82.4%
CCCc1nnc2sc(C3CCC(=O)N(C(C)C)C3)nn12 (stereo not drawn) [CBK306942]	108%
Cc1cccc(C(C)NC(=O)C2(Cn3ccnc3)CC2)n1 (stereo not drawn) [CBK306944]	86.4%
Cc1cccc(=O)n1CCCn1cc(C2CCCNC2)nn1 (stereo not drawn) [CBK306946]	91%
CC(Cn1cccn1)NC(=O)N1CCN(Cc2ccc(F)cc2)CC1 (stereo not drawn) [CBK306948]	88.9%
CCn1cc(CN(C)Cc2csc(C)n2)c2cc(C(=O)O)ncc21 [CBK306950]	116%
CCn1ncc(CN2CCCC(CCC(=O)N3CCN(C)CC3)C2)c1C (stereo not drawn) [CBK306951]	80.4%
Cc1nc(CCCn2cnc3ncccc3c2=O)sc1C [CBK306953]	106%
CC(Cc1cnccn1)NC(=O)Nc1cc(N2CCOCC2)ccc1Cl (stereo not drawn) [CBK306954]	111%
COC(CNC(=O)Cn1nnnc1CN1CCC(C)CC1)c1cccs1 (stereo not drawn) [CBK306958]	109%
COc1ccccc1CN(Cc1cccnc1)C(=O)CCN1CCCO1 [CBK306959]	98.1%
Cc1cc(=O)c2ccccc2n1CC(=O)N(C)CC1CCCCO1 (stereo not drawn) [CBK306960]	94.4%
CN(Cc1cnn(C)c1)c1nccc(N2CCN[C@H]3CS(=O)(=O)C[C@H]32)n1 [CBK306964]	100%
CN(CC1CCCCO1)C(=O)c1ccc(-c2ccccc2C(N)=O)cc1 (stereo not drawn) [CBK306967]	92.6%
CC(=O)N1CCc2nc(C)nc(N(C)Cc3cnn(C(C)C)c3)c2CC1 [CBK306968]	83.1%
Cc1nc(O)cc(C2CCCN(C(=O)c3scc4c3CCCC4)C2)n1 (stereo not drawn) [CBK306969]	88.5%
O=C(NC1CCN(Cc2cc(F)cc(F)c2)CC1)c1cn2ccsc2n1 [CBK306970]	80%
COc1ccccc1CN(Cc1cccnc1)C(=O)c1cnc(C)cn1 [CBK306972]	95.1%
CCCCSc1nc(N)cc(N2CCC(N3CCOC3=O)CC2)n1 [CBK306974]	82.1%
CC(C)c1cc(C(=O)NC2CCN(c3ncccc3C#N)CC2)n(C)n1 [CBK306975]	87.1%
COc1ccc(C(Nc2ccnc(OC)c2C#N)[C@H]2C[C@@H](O)C2)cn1 (stereo partly drawn) [CBK306980]	84.6%

SMILES	viability at 28.5 h, 10 µM
COCCNS(=O)(=O)c1cccc2c1CN(C(=O)CC1CCCC1)CC2 [CBK306982]	101%
COCCN(Cc1ccncc1)C(=O)c1cc(C(C)C)n2ncnc2n1 [CBK306983]	97.4%
Cc1ccc2nc(CNC(=O)N(C)CCc3c(C)n[nH]c3C)cn2c1 [CBK306984]	81.1%
Cn1c(CN2CCN(c3ccc(C#N)cc3)CC2)nnc1[C@H]1C[C@@H](N)C1 [CBK306985]	109%
CN1CCCCCC1c1nc(-c2c[nH]c3ccccc23)nn1CCO (stereo not drawn) [CBK306988]	96%
Cc1cccc(=O)n1CCCNc1cc(C2CCOC2)ncn1 (stereo not drawn) [CBK306992]	84.4%
CCCCSc1nc(N)cc(N2CCCC(N3CCCC3=O)C2)n1 (stereo not drawn) [CBK306995]	95.5%
CSc1ncc(CNC(=O)Nc2ccc3c(c2)CCC3)n1C [CBK306996]	107%
Cc1ccn(CCNC(=O)C2CCC(=O)N(CCc3ccccn3)C2)n1 (stereo not drawn) [CBK306998]	93.5%
CCCCC(c1cccnc1)N(C)C(=O)c1cc(C)c(CC)n(C)c1=O (stereo not drawn) [CBK306999]	88.5%
CCCCSc1nc(N)cc(N2CCC3(CCNC(=O)CC3)CC2)n1 [CBK307001]	98.2%
CC(C)NC(=O)NC1CCCc2nc(N3CCC(CO)CC3)ncc21 (stereo not drawn) [CBK307002]	83.3%
CSCCNC(=O)c1coc(COc2ccc3sc(C)nc3c2)n1 [CBK307004]	99.3%
c1cnc(NCc2cc3n(n2)CCN(CC2CCCC2)C3)nc1 [CBK307007]	87.9%
CN(CCc1cnn(C)c1)C(=O)NCCCN1CCCC1=O [CBK307008]	91.1%
CC(=O)Nc1cccc(C(=O)N2CCC(OCc3ccccn3)CC2)c1 [CBK307009]	114%
CCn1cc(CN(C)Cc2ccon2)c2cc(C(=O)O)ncc21 [CBK307017]	84.7%
CCN(C)CC(=O)N1CCC(Oc2cc(C)ccc2F)(C(=O)O)CC1 [CBK307020]	105%
Cc1nc(N)nc(N[C@@H]2CCOC[C@H]2OCCN(C)C)c1Cl [CBK307024]	88.7%
Cc1cnc(NCC2(CO)CCOCC2)nc1N(C)C [CBK307026]	104%
CCn1c(CC2CCN(c3nc(C)cc(C)c3C#N)CC2)nn(C)c1=O [CBK307027]	111%
COCCn1c(CO)nnc1[C@H]1C[C@@H](NC(=O)c2cc(F)ccc2F)C1 [CBK307032]	85.1%
